Reference: the supplement of paper PMC4862054
Each block holds one molecule with its values, some of them ahead of it.

Tests used:
HDQ-P1 [1] = conditions: 72 h
Protocol: (§1)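 Drug sensitivity and resistance testing (DSRT) of breast cancer cell lines in 384-well plates, 5 concentrations in 10-fold dilutions over a compound-specific 10,000-fold range. After 72 h, cytotoxicity was read by CellTox Green fluorescence and viability by CellTiter-Glo luminescence (multiplexed), normalised to DMSO and benzethonium chloride controls. EC50 is the inflection point of the fitted dose-response curve (bottom asymptote free, so it can be relative for partial curves) and is censored at the highest tested concentration. Rows with DSS 0 (no meaningful response) were excluded.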

Hs578T [2] = conditions: 72 h
Protocol: as §1

MDA-MB-468 [3] = conditions: 72 h
Protocol: as §1

BT-474 [4] = conditions: 72 h
How it was run: (§2)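 Seeding of breast cancer cell lines (20 µl suspension) was done into 384-well plates pre-loaded with compound at 5 concentrations, 10-fold apart, covering a compound-specific 10,000-fold range. The plates were incubated for 72 h, read for CellTox Green fluorescence (485/520 nm), and then read for CellTiter-Glo luminescence after 10 min at room temperature. Every plate was normalised to 0.1 % DMSO and a positive kill control. Curve fitting gave the EC50, censored at the top concentration.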

BT-549 = conditions: 72 h
How it was run: as §2

CAL-120 = conditions: 72 h
How it was run: as §2

CAL-148 [5] = conditions: 72 h
How it was run: as §2

CAL-51 = conditions: 72 h
How it was run: as §2

CAL-85-1 [6] = conditions: 72 h
How it was run: as §2

DU-4475 = conditions: 72 h
How it was run: as §2

HCC1143 = conditions: 72 h
How it was run: as §2

HCC1599 = conditions: 72 h
How it was run: as §2

HCC1937 [7] = conditions: 72 h
How it was run: as §2

HDQ-P1 [8] = conditions: 72 h; remark: listed apart in the source
How it was run: as §2

Hs578T [9] = conditions: 72 h; remark: listed apart in the source
How it was run: as §2

MCF-10A = conditions: 72 h
How it was run: as §2

MDA-MB-231 [10] = conditions: 72 h
How it was run: as §2

MDA-MB-436 = conditions: 72 h
How it was run: as §2

MDA-MB-468 [11] = conditions: 72 h; remark: listed apart in the source
How it was run: as §2

MFM-223 [12] = conditions: 72 h
How it was run: as §2

SK-BR-3 [13] = conditions: 72 h
How it was run: as §2

CAL-85-1 [14] = test: normalised viability (% of control), CellTiter-Blue; higher = more viable cells (about 100 = DMSO control); conditions: incubation time: 72 h
How it was run: (§3)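 384-well plates were pre-loaded with compound in 5 µl medium before 20 µl of breast cancer cell suspension was seeded. Following 72 h incubation, 2.5 µl CellTiter-Blue reagent was added for 2 h at 37 °C. Fluorescence was read at 560/590 nm and plates were normalised to vehicle (100) and a positive kill control (0), checked by Z'-factor. Normalised viability is reported at a single listed concentration of the series.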

MDA-MB-453 [15] = test: as above; conditions: incubation time: 72 h
How it was run: as §3

CAL-85-1 [16] = conditions: 72 h; remark: listed apart in the source
Protocol: as §1

MDA-MB-453 [17] = conditions: 72 h
How it was run: (§4)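 The reported EC50 was fitted from percent-inhibition dose-response curves and censored at the highest concentration. Breast cancer cell lines (20 µl suspension) were added to 384-well plates containing compound in 5 µl medium and incubated 72 h, and viability was read with 2.5 µl CellTiter-Blue over 2 h at 37 °C at 560/590 nm. Each plate was normalised to vehicle and a positive kill control and checked by Z'-factor, and rows with zero drug sensitivity score were dropped.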

SK-BR-3 [18] = conditions: 72 h; remark: listed apart in the source
How it was run: as §4

MDA-MB-453 [19] = conditions: 72 h; remark: listed apart in the source
How it was run: as §2

MDA-MB-231 [20] = conditions: 72 h; remark: listed apart in the source
Protocol: as §1

BT-474 [21] = conditions: 72 h; remark: listed apart in the source
Protocol: as §1

CAL-148 [22] = conditions: 72 h; remark: listed apart in the source
Protocol: as §1

MFM-223 [23] = conditions: 72 h; remark: listed apart in the source
Protocol: as §1

HCC1937 [24] = conditions: 72 h; remark: listed apart in the source
How it was run: as §4

SMILES: Cn1cc(C[C@@H](N)C(=O)O)c2ccccc21 [1-methyl-D-tryptophan]
- EC50, CellTox Green (HDQ-P1 [1]): > 5000 nM
- EC50, CellTox Green (Hs578T [2]): > 5000 nM
- EC50, CellTox Green (MDA-MB-468 [3]): > 5000 nM

- EC50, CellTiter-Glo (BT-474 [4]): 699 nM
- EC50, CellTiter-Glo (BT-549): 139 nM
- EC50, CellTiter-Glo (HCC1143): 359 nM
- EC50, CellTiter-Glo (HCC1599): 649 nM
- EC50, CellTiter-Glo (HCC1937 [7]): 333 nM
- EC50, CellTiter-Glo (MDA-MB-231 [10]): 287 nM
- EC50, CellTiter-Glo (MDA-MB-436): 176 nM
- EC50, CellTiter-Glo (MDA-MB-468 [11]): 85 nM
- EC50, CellTiter-Glo (SK-BR-3 [13]): 491 nM
SMILES: CC[C@H](CC#N)OC(=O)N[C@@H](C)c1cccc(NC(=O)Nc2ccc(-c3cnco3)c(OC)c2)c1 [AVN944]
- EC50, CellTiter-Glo (CAL-120): 376 nM
- EC50, CellTiter-Glo (CAL-148 [5]): 236 nM
- EC50, CellTiter-Glo (CAL-51): 196 nM
- EC50, CellTiter-Glo (CAL-85-1 [6]): 174 nM
- EC50, CellTiter-Glo (DU-4475): 465 nM
- EC50, CellTiter-Glo (HDQ-P1 [8]): 198 nM
- EC50, CellTiter-Glo (Hs578T [9]): 532 nM
- EC50, CellTiter-Glo (MCF-10A): 176 nM
- EC50, CellTiter-Glo (MFM-223 [12]): 859 nM
- EC50, CellTox Green (Hs578T [2]): 191 nM

SMILES: Cc1c(N)nc([C@H](CC(N)=O)NC[C@H](N)C(N)=O)nc1C(=O)N[C@H](C(=O)N[C@H](C)[C@@H](O)[C@H](C)C(=O)N[C@H](C(=O)NCCc1nc(-c2nc(C(=O)NCCC[S+](C)C)cs2)cs1)[C@@H](C)O)[C@@H](OC1OC(CO)C(O)C(O)C1OC1OC(CO)C(O)C(OC(N)=O)C1O)c1cnc[nH]1 (some centres undefined) [Bleomycin] (10000 nM)
- normalised viability (CAL-85-1 [14]): 96.9%
- normalised viability (MDA-MB-453 [15]): 94.2%

SMILES: Cc1cc2c(F)c(Oc3ncnn4cc(OC[C@@H](C)O)c(C)c34)ccc2[nH]1 [Brivanib]
- EC50, CellTiter-Glo (CAL-51): 176 nM
- EC50, CellTox Green (CAL-85-1 [16]): > 1000 nM

SMILES: Cc1cc2c(F)c(Oc3ncnn4cc(OC[C@@H](C)O)c(C)c34)ccc2[nH]1 [Brivanib] (1000 nM)
- normalised viability (CAL-85-1 [14]): 86.9%
- normalised viability (MDA-MB-453 [15]): 99.1%

- EC50, CellTiter-Glo (MDA-MB-436): 5970 nM
- EC50, CellTiter-Blue viability (MDA-MB-453 [17]): 7520 nM
- EC50, CellTiter-Blue viability (SK-BR-3 [18]): 9200 nM
SMILES: CCCCCOC(=O)Nc1nc(=O)n([C@@H]2O[C@H](C)[C@@H](O)[C@H]2O)cc1F [Capecitabine]

SMILES: CC(C)C[C@H](NC(=O)[C@H](CCc1ccccc1)NC(=O)CN1CCOCC1)C(=O)N[C@@H](Cc1ccccc1)C(=O)N[C@@H](CC(C)C)C(=O)[C@@]1(C)CO1 [Carfilzomib] (1000 nM)
- normalised viability (CAL-85-1 [14]): 2.67%
- normalised viability (MDA-MB-453 [15]): 12.3%

SMILES: Nc1nc(Cl)nc2c1ncn2[C@@H]1O[C@H](CO)[C@@H](O)[C@@H]1F [Clofarabine] (10000 nM)
- normalised viability (CAL-85-1 [14]): 51.2%
- normalised viability (MDA-MB-453 [15]): 41.2%

SMILES: CCN(CC)CCOc1ccc(C(=C(Cl)c2ccccc2)c2ccccc2)cc1 [Clomifene] (10000 nM)
- normalised viability (CAL-85-1 [14]): 42.8%
- normalised viability (MDA-MB-453 [15]): 7.39%

- EC50, CellTiter-Glo (MDA-MB-453 [19]): 379 nM
- EC50, CellTiter-Blue viability (MDA-MB-453 [17]): 15.7 nM
SMILES: C[C@@H]1C[C@H]2[C@@H]3CCC4=CC(=O)C=C[C@]4(C)[C@@]3(F)[C@@H](O)C[C@]2(C)[C@@]1(O)C(=O)CO [Dexamethasone]
- EC50, CellTiter-Glo (CAL-120): 7.49 nM

SMILES: C[C@@H]1C[C@H]2[C@@H]3CCC4=CC(=O)C=C[C@]4(C)[C@@]3(F)[C@@H](O)C[C@]2(C)[C@@]1(O)C(=O)CO [Dexamethasone] (10000 nM)
- normalised viability (CAL-85-1 [14]): 105%
- normalised viability (MDA-MB-453 [15]): 75.3%

- EC50, CellTiter-Glo (BT-474 [4]): 722 nM
- EC50, CellTiter-Glo (MDA-MB-436): 636 nM
- EC50, CellTiter-Glo (MDA-MB-468 [11]): 6610 nM
SMILES: Cc1c(C(=O)Nc2ccc(N3C[C@@H](C)O[C@@H](C)C3)nc2)cccc1-c1ccc(OC(F)(F)F)cc1 [Erismodegib]
- EC50, CellTiter-Glo (CAL-51): 41 nM
- EC50, CellTox Green (MDA-MB-231 [20]): > 10000 nM

SMILES: CC(C)C(=O)Nc1ccc([N+](=O)[O-])c(C(F)(F)F)c1 [Flutamide]
- EC50, CellTiter-Glo (CAL-51): > 10000 nM

SMILES: CC(C)C(=O)Nc1ccc([N+](=O)[O-])c(C(F)(F)F)c1 [Flutamide] (10000 nM)
- normalised viability (CAL-85-1 [14]): 84.8%
- normalised viability (MDA-MB-453 [15]): 91.7%

SMILES: COc1cc2c(Oc3ccc(NC(=O)C4(C(=O)Nc5ccc(F)cc5)CC4)cc3F)ccnc2cc1OCCCN1CCOCC1 [Foretinib] (1000 nM)
- normalised viability (CAL-85-1 [14]): 66.8%
- normalised viability (MDA-MB-453 [15]): 51.8%

- EC50, CellTiter-Glo (BT-474 [4]): > 10000 nM
- EC50, CellTiter-Glo (BT-549): 600 nM
- EC50, CellTiter-Glo (HCC1143): 1590 nM
- EC50, CellTiter-Glo (HCC1937 [7]): 2350 nM
- EC50, CellTiter-Glo (MDA-MB-436): > 10000 nM
- EC50, CellTiter-Glo (MDA-MB-453 [19]): 783 nM
- EC50, CellTiter-Glo (MDA-MB-468 [11]): 656 nM
- EC50, CellTiter-Glo (SK-BR-3 [13]): 814 nM
SMILES: CC(C)NC[C@@H](C(=O)N1CCN(c2ncnc3c2[C@H](C)C[C@H]3O)CC1)c1ccc(Cl)cc1 [GDC-0068]
- EC50, CellTiter-Glo (CAL-120): 819 nM
- EC50, CellTiter-Glo (CAL-148 [5]): 177 nM
- EC50, CellTiter-Glo (CAL-51): 2780 nM
- EC50, CellTiter-Glo (CAL-85-1 [6]): 6480 nM
- EC50, CellTiter-Glo (DU-4475): 2070 nM
- EC50, CellTiter-Glo (HDQ-P1 [8]): 271 nM
- EC50, CellTiter-Glo (Hs578T [9]): 1150 nM
- EC50, CellTiter-Glo (MCF-10A): 1150 nM
- EC50, CellTiter-Glo (MFM-223 [12]): 139 nM
- EC50, CellTox Green (BT-474 [21]): 5810 nM
- EC50, CellTox Green (CAL-148 [22]): 221 nM
- EC50, CellTox Green (HDQ-P1 [1]): > 10000 nM
- EC50, CellTox Green (MDA-MB-468 [3]): 2640 nM
- EC50, CellTox Green (MFM-223 [23]): 1330 nM

- EC50, CellTiter-Glo (BT-549): 14000 nM
- EC50, CellTiter-Blue viability (HCC1937 [24]): 13400 nM
SMILES: NC(=O)NO [Hydroxyurea]
- EC50, CellTiter-Glo (CAL-51): 1290 nM

SMILES: NC(=O)NO [Hydroxyurea] (100000 nM)
- normalised viability (CAL-85-1 [14]): 90%
- normalised viability (MDA-MB-453 [15]): 91.5%
